In a melting point compilation (Tetko et al.; mined from patent text by program, amines drawn as free bases though some values may be those of a salt) one finds melting point data, which are given here for 62 compounds.

For the compound `O=[N+]([O-])c1ccc2nc(-c3ccccc3)oc2n1`, the melting point (usually the temperature, or range, at which the solid turns liquid) lay within 219 to 220 °C.

Turning to `CC(C)n1nc(-c2nc(-c3ccccc3)c(N)nc2-c2ccccc2)ccc1=O`, the melting point was 225 to 226 °C.

Turning to `COc1ccc2cc(CNc3ccc(O)cc3)ccc2c1`, the melting point lay in the range of 139 to 140 °C.

As for `NC(=O)c1ccccc1N=C(NC(=O)c1ccccc1)NC(=O)c1ccccc1`, the melting point lay in the range of 276 to 278 °C.

Consider `C[C@@H](c1ncncc1F)[C@@](Cn1cncn1)(OP(=O)(OCc1c(F)cccc1Cl)OCc1c(F)cccc1Cl)c1ccc(F)cc1F`, for which the melting point was in the range of 140 to 141 °C.

In the case of `COC(=S)c1cc(F)c(-c2ccccc2)nc1Nc1ccc(F)cc1F`, the melting point was found to be 128 °C.

The compound `C=CCOc1cc(CNc2nc(C)nc(C)c2Cl)ccc1OCc1ccccc1` registered a melting point of 94 to 96 °C.

`CC(C)(COC(=O)CCC(=O)O)Oc1ccc2c(c1)CCc1c-2ccc2c1CCC2(C)C` yielded a melting point of 118 to 120 °C.

`CN(C)Cc1nc(-c2ncn3c2[C@@H]2CCN2C(=O)c2c-3ccc(F)c2Cl)no1` returned a melting point of 166 to 169 °C.

In turn, `CCCCCCCCCCCCCCCCCCOc1cc(N)cc(OCCCP(=O)(OCC)OCC)c1` had a melting point of 63 to 65 °C.

`COC(=O)C1=C(C)NC(C)=C(S(=O)(=O)c2ccccc2)C1c1ccccc1[N+](=O)[O-]` (configuration not stated) displayed a melting point of 203 °C.

`CC(=O)OC1=C(c2ccccc2)C(=O)N(C(C)(C)c2ccccc2)C1`: the melting point was in the range of 149 to 150 °C.

On to `Nc1ccccc1NC(=O)c1cc2cc(OCCO)ccc2s1`, for which the melting point is 215 to 216 °C.

Take `CCOC(OCC)c1ncn(CCC(O)(c2ccc(F)cc2F)n2cncn2)n1` (configuration not stated): the melting point was 85 to 87 °C.

`Nc1nc(N2CCC2)c2ncn(C3CC(F)C(CO)O3)c2n1` (configuration not stated) showed a melting point of 127 to 129 °C.

In turn, `O=C1CN(N=Cc2ncc(-c3ccc(F)cc3)o2)C(=O)N1` showed a melting point of 281 to 282 °C.

Regarding `O=C(O)CNc1ccc(Cl)c(Cl)c1`, the melting point was 128 to 130 °C.

Consider `COC(=CCl)C1(O)CCC2C3CCC4=CC(=O)CCC4(C)C3=CCC21C` (configuration not stated), for which the melting point lay within 197 to 199 °C.

`CCOc1nc(NCc2ccco2)nc(Nc2ccc3c(c2)ncn3C)n1` yielded a melting point of 105 to 107 °C.

In turn, `O=Cc1cccc(Oc2ccccc2)c1F` returned a melting point of 75 to 77 °C.

Take `CNc1cc(F)ccc1C(=O)CSC`: the melting point lay in the range of 61.5 to 63 °C.

For `COc1ccc(N2CC(O)c3cc(Cl)sc3S2(=O)=O)cc1` (configuration not stated), the melting point lay within 127 to 132 °C.

`COc1ccc2cccc(C(CO)CNC(=O)CF)c2c1` (configuration not stated): the melting point was in the range of 49 to 51 °C.

`O=C1OC(=O)c2cc3ccc(C(F)(F)F)cc3c3cccc1c23`: the melting point was 310 to 312 °C.

`CC(C)C(C#N)c1ccc(O)c(O)c1` (configuration not stated) registered a melting point of 134 to 136 °C.

In turn, `COCCNC(=O)c1cccc(-c2cccc3cc(Cc4cccc(Cl)c4)sc23)c1` had a melting point of 120 to 134 °C.

Compound `Nc1nccc(-c2c[nH]c3nccc(CCc4ccccc4)c23)n1` showed a melting point of 196 to 198 °C.

`Cc1nc2c(OCc3ccccc3)cc(Br)cn2c1C` had a melting point of 151 to 153 °C.

In turn, `CCOc1nc(CCO)nc(N2CCc3ccccc3CC2)c1C#N` returned a melting point of 108 to 111 °C.

As to `COc1cc2c(Nc3ccc4cn[nH]c4c3)c(C#N)cnc2cc1OCCN1CCSCC1`, the melting point lay in the range of 213 to 215 °C.

Consider `Cc1c(C(=O)O)nnn1Cc1c(F)cccc1F`, for which the melting point was 166 to 167 °C.

As to `COc1cccc(C(=O)O)c1NC(=O)C(C)(C)C`, the melting point is 117 to 120 °C.

For the compound `Cc1cc(C)c(Nc2nc(C)ccc2S(=O)(=O)c2ccc(OCc3csc(C)n3)cc2)c(C)c1`, the melting point is 200 to 201 °C.

Compound `CCCOc1ccc(C(CC(N)=O)N2C(=O)c3ccccc3C2=O)cc1` (configuration not stated) returned a melting point of 110 °C.

In turn, `O=C(O)Cc1cc(-c2ccccc2)sc1NC(=O)c1ccccc1` came in with a melting point of 121 to 122 °C.

The compound `CC(C)(C)OC(=O)NC1CCCCCC=CC2CC2(C(=O)NS(=O)(=O)C2CC2)NC(=O)C2CC(OC(=O)c3cnccn3)CN2C1=O` (configuration not stated) yielded a melting point of 150 to 152 °C.

`CCNc1c(F)cc2c(=O)c(C(=O)O)cn(-c3cc(N)c(F)cc3F)c2c1Cl` gave a melting point of 252 to 255 °C.

With `CNc1nc(-c2cccc(NC(=O)c3ccc(OCc4ccccc4)cc3)c2)c2cc(OC)c(OC)cc2n1`, the melting point lay within 110 to 112 °C.

Turning to `Cc1cccc2c1-n1cnnc1SC2`, the melting point is 234 °C.

For `Nc1ccccc1C(=O)C1CCC1`, the melting point was 55 °C.

For the compound `Cc1sc(N2CCOCC2)nc1/C=C/c1cn(-c2ccccc2)nc1O`, the melting point was 278 to 279 °C.

For the compound `O=C(NN=C1c2ccc(F)cc2CCC1c1ccccc1)Nc1ccc(C(F)(F)F)cc1` (configuration not stated), the melting point lay within 158 to 160 °C.

`CC(C)Oc1ccc(-n2c(C(=O)NC(C)(C)C(=O)O)c(Cl)c3cc(Oc4ccc(C(F)(F)F)cc4)ccc32)cc1` came in with a melting point of 187 to 188 °C.

Regarding `Cc1ccc(S(=O)(=O)N[C@@H](C)C(=O)Oc2csc(-c3ccccc3)c2)cc1`, the melting point was 85 to 87 °C.

For `O=C(c1ccc(Cl)cc1)c1cc(-c2ccncc2)c(N2CCOCC2)s1`, the melting point was found to be 176 °C.

Regarding `CC(CN(C)C)Oc1ccc(-c2n[nH]c3ncccc23)cc1` (configuration not stated), the melting point fell in the range of 130 to 132 °C.

For the compound `COc1ccc2c(c1)c(CN(O)C(=O)CCC(=O)O)c(C)n2C(=O)c1ccc(Cl)cc1`, the melting point fell in the range of 134 to 136 °C.

For `CS(=O)(=O)N(CCO)c1c(Cl)c(C(F)(F)F)cc2[nH]c(=O)c(=O)[nH]c12`, the melting point lay in the range of 292 to 294 °C.

`CCNc1cc(C(C)=O)ccn1`: the melting point lay within 55 to 57 °C.

As for `Cc1cc(C(=O)NCc2cccc3c2C(=O)N(C2CCC(=O)NC2=O)C3=O)no1` (configuration not stated), the melting point fell in the range of 207 to 209 °C.

Compound `Cc1cc(Nc2ccc(C(F)(F)F)cc2C(=O)O)n(-c2ccccn2)n1` gave a melting point of 228 to 229 °C.

Consider `CN(CC(=O)C(Cc1ccccc1)NC(=O)c1ccccc1)C(=O)N1CCCC1C(=O)O` (configuration not stated), for which the melting point was 60 to 82 °C.

In the case of `CCCC(C)(CO)c1cc(Cl)nnc1Cl` (configuration not stated), the melting point fell in the range of 99 to 100 °C.

Regarding `Clc1ccc(-c2c(Cc3nc4ccccc4o3)cnn2-c2ccccc2)cc1`, the melting point lay within 137 to 139 °C.

Compound `CCOC(=O)CCCCc1cn(-c2cccnc2)c2ccccc12` returned a melting point of 56 to 58 °C.

In the case of `CC(C)c1cccc(C(C)C)c1NC(=O)C(NCc1ccccc1)c1ccccc1` (configuration not stated), the melting point was in the range of 134 to 137 °C.

Consider `O=C(O)c1ccccc1N1CCN(CC(O)COc2cccc3[nH]ccc23)CC1` (configuration not stated), for which the melting point was in the range of 163 to 165 °C.

For the compound `Nc1c(SC(F)(F)F)nc(Cl)n1-c1c(Cl)cc(C(F)(F)F)cc1Cl`, the melting point stood at 172 °C.

`O=C(c1ccccc1)N1CCC(c2nn(-c3ccccc3)c3cc(F)ccc23)CC1` came in with a melting point of 149 to 151 °C.

Turning to `O=C(c1ccccc1)C(c1ccc(Cl)cc1Cl)C(F)n1cncn1` (configuration not stated), the melting point lay in the range of 104 to 108 °C.

On to `O=C(c1ccc(Cl)cc1)N1N=C(C(F)(F)F)CC1(O)c1cc(F)ccc1F` (configuration not stated), for which the melting point was 110 to 113 °C.

`CCCCNC(=O)NS(=O)(=O)c1c(Cl)cccc1-c1ccccc1` returned a melting point of 184 to 186 °C.
